One data set addresses T1, Lr-XylC (Limosilactobacillus reuteri, UniProt A0A0S4NRU4).
T1 construct: recombinant E. coli Rosetta (DE3), pET28a, His-tag, any signal peptide excluded; ~75 kDa; catalytic Asp382 and Glu415
T1 sequence (A0A0S4NRU4 1-679): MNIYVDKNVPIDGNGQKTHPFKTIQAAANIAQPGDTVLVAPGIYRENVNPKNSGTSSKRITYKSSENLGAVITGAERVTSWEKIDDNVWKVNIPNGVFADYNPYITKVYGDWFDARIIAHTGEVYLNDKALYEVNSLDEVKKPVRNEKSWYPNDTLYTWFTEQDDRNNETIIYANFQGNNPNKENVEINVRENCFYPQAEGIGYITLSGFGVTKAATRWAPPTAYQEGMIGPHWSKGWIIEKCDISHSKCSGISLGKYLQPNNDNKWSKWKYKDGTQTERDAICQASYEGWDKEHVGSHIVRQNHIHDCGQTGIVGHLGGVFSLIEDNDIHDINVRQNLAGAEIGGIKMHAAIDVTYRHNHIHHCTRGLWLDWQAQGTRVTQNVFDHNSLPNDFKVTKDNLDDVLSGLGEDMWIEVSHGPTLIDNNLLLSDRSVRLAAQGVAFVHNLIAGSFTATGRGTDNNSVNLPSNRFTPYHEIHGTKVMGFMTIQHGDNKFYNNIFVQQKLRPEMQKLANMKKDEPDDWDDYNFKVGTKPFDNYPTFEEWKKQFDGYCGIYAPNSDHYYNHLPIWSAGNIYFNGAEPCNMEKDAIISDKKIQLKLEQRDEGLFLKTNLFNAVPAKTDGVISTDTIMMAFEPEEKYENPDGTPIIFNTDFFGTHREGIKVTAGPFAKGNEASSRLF
In words: inhibition of pNP-Xyl hydrolysis, absorbance […] nm. Conditions: 2 mM pNP-Xyl, 50 mM sodium phosphate pH 5.7, 45 °C, 5 min; 200 mM xylose. Type of data set: biochemical.

The target of a further data set is T2, Bp-XylX-2 (Blautia producta, UniProt A0ABX6JGM7).
T2 construct: gene GXM18_22300; recombinant E. coli Rosetta (DE3), pET28a, His-tag, any signal peptide excluded; ~75 kDa; catalytic Asp386 and Glu409; strain proteome UP000464715
Briefly: inhibition of pNP-Xyl hydrolysis, absorbance […] nm. Type of data set: biochemical. Conditions: 2 mM pNP-Xyl, 50 mM sodium phosphate pH 5.7, 45 °C, 5 min; 200 mM xylose.

A further data set has as its target T3, Bp-XylX-1 (Blautia producta, UniProt A0ABX6JHR7).
T3 construct: gene GXM18_27615; recombinant E. coli Rosetta (DE3), pET28a, His-tag, any signal peptide excluded; ~75 kDa; catalytic Asp371 and Glu408; strain proteome UP000464715
In words: inhibition of pNP-Xyl hydrolysis, absorbance […] nm. Type of data set: biochemical. Conditions: 2 mM pNP-Xyl, 50 mM sodium phosphate pH 5.7, 45 °C, 5 min; 200 mM xylose.

Substrate in the data set “purified protein”: O=[N+]([O-])c1ccc(O[C@@H]2OC[C@@H](O)[C@H](O)[C@H]2O)cc1
Briefly: purified protein. Type of data set: biochemical, Limosilactobacillus reuteri. Conditions: sodium phosphate pH 5.7 (50 mM in Table 1, 10 mM in methods), 45 °C, 10 min, 1.3 µM enzyme.

T3 sequence (A0ABX6JHR7 entry or part of it): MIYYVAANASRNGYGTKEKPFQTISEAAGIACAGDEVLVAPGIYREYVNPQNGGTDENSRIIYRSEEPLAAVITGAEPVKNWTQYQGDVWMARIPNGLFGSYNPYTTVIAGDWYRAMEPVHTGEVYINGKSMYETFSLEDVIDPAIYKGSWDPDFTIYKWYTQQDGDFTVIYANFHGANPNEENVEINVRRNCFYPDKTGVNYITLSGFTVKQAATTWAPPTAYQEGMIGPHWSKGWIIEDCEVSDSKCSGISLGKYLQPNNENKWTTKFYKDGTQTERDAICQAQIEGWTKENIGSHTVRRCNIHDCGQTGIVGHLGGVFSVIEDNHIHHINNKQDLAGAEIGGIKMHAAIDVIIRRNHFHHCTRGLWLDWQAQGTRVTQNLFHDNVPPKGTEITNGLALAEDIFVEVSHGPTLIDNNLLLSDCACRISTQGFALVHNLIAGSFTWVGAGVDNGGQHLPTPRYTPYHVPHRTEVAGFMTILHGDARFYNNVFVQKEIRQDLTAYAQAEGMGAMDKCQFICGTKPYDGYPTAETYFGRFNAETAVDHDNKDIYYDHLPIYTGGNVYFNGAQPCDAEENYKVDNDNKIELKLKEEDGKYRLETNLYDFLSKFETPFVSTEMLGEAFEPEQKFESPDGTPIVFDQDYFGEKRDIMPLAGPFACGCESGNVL
T2 sequence (A0ABX6JGM7 entry or part of it): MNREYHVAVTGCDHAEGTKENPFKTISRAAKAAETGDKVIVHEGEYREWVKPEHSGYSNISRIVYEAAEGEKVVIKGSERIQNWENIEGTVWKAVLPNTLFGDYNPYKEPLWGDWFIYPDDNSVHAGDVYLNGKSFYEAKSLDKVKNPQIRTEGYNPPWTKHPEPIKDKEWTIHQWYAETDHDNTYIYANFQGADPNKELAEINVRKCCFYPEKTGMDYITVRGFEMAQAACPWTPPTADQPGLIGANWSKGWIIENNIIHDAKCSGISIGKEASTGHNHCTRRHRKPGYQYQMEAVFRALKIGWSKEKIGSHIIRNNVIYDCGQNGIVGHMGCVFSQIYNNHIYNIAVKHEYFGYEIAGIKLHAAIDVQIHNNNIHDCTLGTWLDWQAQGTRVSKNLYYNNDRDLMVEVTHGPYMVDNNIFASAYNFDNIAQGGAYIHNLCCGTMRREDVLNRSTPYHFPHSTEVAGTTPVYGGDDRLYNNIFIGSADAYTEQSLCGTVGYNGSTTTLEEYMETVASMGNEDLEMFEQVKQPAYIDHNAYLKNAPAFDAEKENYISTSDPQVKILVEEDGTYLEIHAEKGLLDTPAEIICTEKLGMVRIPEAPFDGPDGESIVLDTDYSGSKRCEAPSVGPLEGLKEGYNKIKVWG

Take `OC1OC[C@@H](O)[C@H](O)[C@H]1O` (stereo partly drawn) [xylose]: the “% reduction in activity at 200 mM” value is ~ 12% on Lr-XylC, ~ 26% on Bp-XylX-2 and ~ 42% on Bp-XylX-1.

B1: Lr-XylC (Limosilactobacillus reuteri subsp. suis) (protein)
chain: T1 sequence (A0A0S4NRU4 1-679)
notes: recombinant E. coli Rosetta (DE3), pET28a, His-tag, any signal peptide excluded; ~75 kDa; catalytic Asp382 and Glu415
On to B1, for which, in the data set “purified protein”, the Km is 230 ± 20 µM, the turnover number (kcat) worked out at 11.4 ± 0.2 s⁻¹ and the specificity constant (kcat/Km) was found to be 49000 M⁻¹ s⁻¹.

The record behind these values is PMC8954004, “Biochemical Basis of Xylooligosaccharide Utilisation by Gut Bacteria” (International Journal of Molecular Sciences, 2022).
